Details: Liquid; for mass density: Vibrating tube method; for viscosity: Concentric cylinders viscometry

CCCC[n+]1ccc(C)cc1.F[B-](F)(F)F [1-butyl-4-methylpyridinium tetrafluoroborate]
Details	mass density [kg/m3]	viscosity [mPa·s]
278.16 K, 101.33 kPa	1202.41	–
283.13 K, 2389 kPa	1200.77	–
283.14 K, 99418 kPa	1237.54	–
283.15 K, 101.33 kPa	–	765.72
283.15 K, 60042 kPa	1223.77	–
283.15 K, 79648 kPa	1230.82	–
283.15 K, 89923 kPa	1234.36	–
283.16 K, 49953 kPa	1219.99	–
283.16 K, 69924 kPa	1227.37	–
283.17 K, 101.33 kPa	1198.9	–
283.17 K, 20156 kPa	1208.22	–
283.17 K, 29957 kPa	1212.19	–
283.17 K, 39808 kPa	1216.08	–
283.2 K, 5533 kPa	1202.11	–
283.2 K, 10148 kPa	1204.06	–
293.13 K, 2593 kPa	1194.15	–
293.14 K, 99354 kPa	1231.77	–
293.15 K, 101.33 kPa	–	338.59
293.15 K, 69958 kPa	1221.46	–
293.15 K, 79965 kPa	1225.08	–
293.15 K, 90001 kPa	1228.6	–
293.16 K, 101.33 kPa	1191.79	–
293.16 K, 5220 kPa	1195.31	–
293.16 K, 49933 kPa	1213.87	–
293.16 K, 59929 kPa	1217.71	–
293.17 K, 10236 kPa	1197.5	–
293.17 K, 19941 kPa	1201.67	–
293.17 K, 29914 kPa	1205.84	–
293.17 K, 39693 kPa	1209.82	–
298.13 K, 101.33 kPa	1188.41	–
298.15 K, 101.33 kPa	–	236.97
298.15 K, 1003 kPa	1190.06	–
298.15 K, 5005 kPa	1191.86	–
298.15 K, 10002 kPa	1194.09	–
298.15 K, 19998 kPa	1198.45	–
298.15 K, 29945 kPa	1202.67	–
298.15 K, 39923 kPa	1206.79	–
298.15 K, 49991 kPa	1210.83	–
298.15 K, 60002 kPa	1214.72	–
298.15 K, 70001 kPa	1218.49	–
298.15 K, 79994 kPa	1222.14	–
298.15 K, 90002 kPa	1225.68	–
298.15 K, 99998 kPa	1229.1	–
303.15 K, 101.33 kPa	–	171.04
313.13 K, 101.33 kPa	1178.11	–
313.15 K, 101.33 kPa	–	96.18
313.15 K, 59740 kPa	1205.47	–
313.16 K, 2707 kPa	1180.63	–
313.16 K, 20303 kPa	1188.77	–
313.16 K, 29913 kPa	1193.03	–
313.16 K, 49943 kPa	1201.51	–
313.16 K, 69933 kPa	1209.44	–
313.16 K, 89952 kPa	1216.83	–
313.16 K, 99473 kPa	1220.15	–
313.17 K, 5339 kPa	1181.88	–
313.17 K, 10173 kPa	1184.14	–
313.17 K, 39937 kPa	1197.34	–
313.17 K, 79710 kPa	1213.11	–
323.15 K, 101.33 kPa	–	58.53
333.13 K, 1547 kPa	1166.3	–
333.13 K, 39448 kPa	1184.41	–
333.14 K, 101.33 kPa	1164.59	–
333.14 K, 49914 kPa	1188.99	–
333.14 K, 60043 kPa	1193.26	–
333.15 K, 101.33 kPa	–	38.29
333.15 K, 5146 kPa	1168.12	–
333.15 K, 29917 kPa	1180.08	–
333.15 K, 69942 kPa	1197.26	–
333.16 K, 19866 kPa	1175.35	–
333.16 K, 79463 kPa	1200.96	–
333.16 K, 89996 kPa	1204.89	–
333.17 K, 9837 kPa	1170.46	–
333.17 K, 99595 kPa	1208.3	–
343.14 K, 101.33 kPa	1157.92	–
343.15 K, 101.33 kPa	–	26.48
353.13 K, 59133 kPa	1180.36	–
353.14 K, 2498 kPa	1152.85	–
353.14 K, 5035 kPa	1154.22	–
353.14 K, 9690 kPa	1156.69	–
353.14 K, 20367 kPa	1162.21	–
353.14 K, 29942 kPa	1166.97	–
353.14 K, 39870 kPa	1171.71	–
353.14 K, 49991 kPa	1176.35	–
353.14 K, 70001 kPa	1184.93	–
353.15 K, 101.33 kPa	–	19.17
353.15 K, 89993 kPa	1192.71	–
353.16 K, 79945 kPa	1188.9	–
353.16 K, 98529 kPa	1195.8	–
363.15 K, 101.33 kPa	–	14.41
373.13 K, 59930 kPa	1168.03	–
373.14 K, 2866 kPa	1138.93	–
373.14 K, 40385 kPa	1158.91	–
373.14 K, 49993 kPa	1163.5	–
373.14 K, 69984 kPa	1172.37	–
373.15 K, 101.33 kPa	–	11.19
373.15 K, 5031 kPa	1140.17	–
373.15 K, 29936 kPa	1153.67	–
373.15 K, 79614 kPa	1176.31	–
373.15 K, 90002 kPa	1180.33	–
373.15 K, 99124 kPa	1183.64	–
373.16 K, 9772 kPa	1142.85	–
373.17 K, 20168 kPa	1148.55	–
393.14 K, 99382 kPa	1171.13	–
393.15 K, 10459 kPa	1129.2	–
393.15 K, 20029 kPa	1134.74	–
393.15 K, 90001 kPa	1167.72	–
393.16 K, 2068 kPa	1124.13	–
393.16 K, 5306 kPa	1126.11	–
393.16 K, 29942 kPa	1140.22	–
393.17 K, 39803 kPa	1145.4	–
393.17 K, 49942 kPa	1150.46	–
393.17 K, 70000 kPa	1159.64	–
393.17 K, 80173 kPa	1163.89	–
393.18 K, 59764 kPa	1155.09	–

Reference: the NIST ThermoML archive (doi:10.1016/j.jct.2012.02.018)
